target: MAPK14 (human) (UniProt Q16539); experiment: Inhibition of MAPK14 Kinase Activity
Sequence (Q16539 whole entry, looked up): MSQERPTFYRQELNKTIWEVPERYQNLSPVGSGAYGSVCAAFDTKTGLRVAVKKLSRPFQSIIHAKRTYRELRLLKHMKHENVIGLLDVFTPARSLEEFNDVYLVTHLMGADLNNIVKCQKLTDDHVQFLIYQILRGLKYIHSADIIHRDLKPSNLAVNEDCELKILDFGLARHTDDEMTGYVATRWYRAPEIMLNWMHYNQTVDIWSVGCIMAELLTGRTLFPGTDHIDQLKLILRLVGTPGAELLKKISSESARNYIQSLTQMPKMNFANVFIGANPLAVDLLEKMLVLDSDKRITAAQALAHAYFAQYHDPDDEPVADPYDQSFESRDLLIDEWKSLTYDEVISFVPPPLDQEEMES

IC50, < 1000 nM:
O=C(NC1CCNC1)c1sc2c(ccc(=O)n2-c2ccccc2)c1Nc1ccc(F)cc1F (stereo unspecified)
Cc1cc(Nc2c(C(=O)C3CCN(C)CC3)sc3c2ccc(=O)n3-c2ccccc2)ccc1F
CN1CC[C@H](NC(=O)c2sc3c(ccc(=O)n3-c3ccccc3)c2Nc2ccc(F)cc2F)C1
O=C(N[C@@H]1CCNC1)c1sc2c(ccc(=O)n2-c2ccccc2)c1Nc1ccc(F)cc1F
CN1CCC(NC(=O)c2sc3c(ccc(=O)n3-c3ccccc3)c2Nc2ccc(F)cc2F)CC1
O=C(N[C@H]1CCNC1)c1sc2c(ccc(=O)n2-c2ccccc2)c1Nc1ccc(F)cc1F
Cc1cccc(Nc2c(C(=O)C3CCNCC3)sc3c2ccc(=O)n3-c2ccccc2)n1
O=C(c1sc2c(ccc(=O)n2-c2ccccc2)c1Nc1ccc(F)cc1F)C1CCNCC1
Cc1cc(Nc2c(C(=O)NC3CNC3)sc3c2ccc(=O)n3-c2ccccc2)ccc1F
O=C(N[C@@H]1CCC[C@@H]1O)c1sc2c(ccc(=O)n2-c2ccccc2)c1Nc1ccc(F)cc1F
O=C(N[C@H]1CCC[C@@H]1O)c1sc2c(ccc(=O)n2-c2ccccc2)c1Nc1ccc(F)cc1F
O=C(c1sc2c(ccc(=O)n2-c2ccccc2)c1Nc1ccccc1)C1CCNCC1
O=C(N[C@@H]1CCC[C@H]1O)c1sc2c(ccc(=O)n2-c2ccccc2)c1Nc1ccc(F)cc1F
Cc1cc(Nc2c(C(=O)C3CCNCC3)sc3c2ccc(=O)n3-c2ccccc2)ccc1F
CN1CC[C@@H](NC(=O)c2sc3c(ccc(=O)n3-c3ccccc3)c2Nc2ccc(F)cc2F)C1
O=C(NC1CCNCC1)c1sc2c(ccc(=O)n2-c2ccccc2)c1Nc1ccc(F)cc1F

— the Kinase Knowledgebase extract (Sharma et al. 2016)
